Here are results for 1 compound from BindingDB's records for patent US20240109917 (Actelion Pharmaceuticals, 2024).

For experiment [1], the target named is Platelet-derived growth factor receptor beta (Homo sapiens, UniProt P09619). Nature of the experiment: PDGFRβ HTRF Assay. For orientation: TR-FRET usually uses a lanthanide donor and a delayed reading to cut background.
Procedure: Stock Solutions:Assay buffer stock solution, contains 50 mM Hepes, 10 mM MgCl2, 1 mM EGTA, and 0.01% Brij-35, 0.01% ovalbumin, 2 mM DTT at pH 7.5, in molecular biology grade water. […] Store at −80° C. in aliquots.TK-biotin peptide, 0.5 μM in molecular biology grade water, store at −20° C. in aliquots.ATP, 100 mM in molecular biology grade water, store at −20° C. in aliquots.HTRF KinEASE-TK kit: Allow the contents of the Cisbio kit to warm up to room temperature before use. This kit contains HTRF detection buffer, TK-Antibody labeled with Eu3+-cryptate, TK-substrate biotin and Streptavidin-XL665.TK Substrate-Biotin, reconstitute 500 μg lyopholized with 574 μL molecular biology grade water to prepare a 500 μM stock; After use, aliquot the rest and store at −20° C.TK Antibody-Cryptate, reconstitute lyophilized with 1 mL of molecular biology grade water (100× solution) then add 99 mL detection buffer to prepare a ready to use TK-antibody-cryptate solution; the concentration of the TK-antibody-cryptate reagent is not known.
For experiment [2], the target named is Vascular endothelial growth factor receptor 2 (Homo sapiens, UniProt P35968). The experiment is described as follows: VEGFR ADP GLO Assay. The procedure:
Assay Procedure:Step 1. Dispensing inhibitors/controls: Using Echo, dispense 10 nL/well compound serial dilutions in DMSO to columns 1-22 (in 384-well plates) or columns 1-44 (in 1536-well plates). Dilution series=11 pt, 3-fold dilutions. The top compound concentration in the source plate is 4 mM. The top compound concentration in the assay plate is 10 uM. Using Echo, dispense 10 nl/well DMSO to column 23 (in 384-well plates) or columns 45-47 (in 1536-well plates). These wells will serve as negative control wells Using Echo, dispense 10 nl/well 400 uM TAK-593 in DMSO to column 24 (in 384-well plates) or column 48 (in 1536-well plates). The final concentration of TAK-593 in the assay should be 1 uM. These wells will serve as positive control wells.Step 2. Pre-incubation of inhibitors with kinase: Add 2 μL/well 2× kinase solution. Centrifuge at 1000 rpm for 1 min. Incubate at room temperature for 30 min.Step 3. Kinase cascade reaction: Add 2 μL/well 2× substrate/ATP solution to initiate kinase reactions. Centrifuge at 1000 rpm for 1 min. Incubate at room temperature for 180 min.Final concentrations of components in the assay:[VEGFR2]=5 nM;[ATP]=1.2 mM;[Srctide]=1 mg/mL;[DMSO] G; 1%.Step 4. Quench: Add 2 uL/well ADP Glo Reagent+0.05% CHAPS. […] Centrifuge at 1000 rpm for 1 min; Incubate at room temperature for 1 hour; Read Luminescence on a plate reader.

Platelet-derived growth factor receptor beta, sequence (P09619 whole entry): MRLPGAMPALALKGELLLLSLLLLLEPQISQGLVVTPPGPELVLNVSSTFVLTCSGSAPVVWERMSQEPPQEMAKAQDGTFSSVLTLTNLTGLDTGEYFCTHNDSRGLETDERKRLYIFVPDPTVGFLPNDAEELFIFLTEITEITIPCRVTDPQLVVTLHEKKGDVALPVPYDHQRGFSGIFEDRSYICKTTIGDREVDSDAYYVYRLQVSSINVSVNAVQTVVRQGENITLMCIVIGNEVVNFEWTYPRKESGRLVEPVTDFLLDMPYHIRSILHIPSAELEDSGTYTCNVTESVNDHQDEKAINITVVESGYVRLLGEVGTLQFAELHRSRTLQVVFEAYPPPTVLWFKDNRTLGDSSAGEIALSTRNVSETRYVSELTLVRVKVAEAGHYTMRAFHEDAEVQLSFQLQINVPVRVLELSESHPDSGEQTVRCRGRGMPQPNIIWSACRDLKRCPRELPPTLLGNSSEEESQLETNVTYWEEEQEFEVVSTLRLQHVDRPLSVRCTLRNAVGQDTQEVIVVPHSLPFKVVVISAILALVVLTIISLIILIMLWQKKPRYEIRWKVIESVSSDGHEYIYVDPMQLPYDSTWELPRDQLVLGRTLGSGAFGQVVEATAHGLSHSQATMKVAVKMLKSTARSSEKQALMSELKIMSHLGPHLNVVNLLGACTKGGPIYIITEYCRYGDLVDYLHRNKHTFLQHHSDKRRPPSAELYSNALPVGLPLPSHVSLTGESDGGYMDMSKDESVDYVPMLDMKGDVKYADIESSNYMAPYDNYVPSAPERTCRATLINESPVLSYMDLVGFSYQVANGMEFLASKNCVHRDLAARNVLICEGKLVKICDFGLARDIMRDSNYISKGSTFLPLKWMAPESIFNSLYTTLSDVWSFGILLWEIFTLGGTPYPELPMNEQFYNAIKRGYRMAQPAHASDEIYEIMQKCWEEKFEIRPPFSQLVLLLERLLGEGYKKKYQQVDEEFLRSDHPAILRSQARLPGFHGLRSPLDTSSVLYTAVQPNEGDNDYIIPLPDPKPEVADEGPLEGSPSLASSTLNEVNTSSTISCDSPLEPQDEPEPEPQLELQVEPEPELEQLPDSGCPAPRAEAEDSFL
Vascular endothelial growth factor receptor 2, sequence (P35968 whole entry): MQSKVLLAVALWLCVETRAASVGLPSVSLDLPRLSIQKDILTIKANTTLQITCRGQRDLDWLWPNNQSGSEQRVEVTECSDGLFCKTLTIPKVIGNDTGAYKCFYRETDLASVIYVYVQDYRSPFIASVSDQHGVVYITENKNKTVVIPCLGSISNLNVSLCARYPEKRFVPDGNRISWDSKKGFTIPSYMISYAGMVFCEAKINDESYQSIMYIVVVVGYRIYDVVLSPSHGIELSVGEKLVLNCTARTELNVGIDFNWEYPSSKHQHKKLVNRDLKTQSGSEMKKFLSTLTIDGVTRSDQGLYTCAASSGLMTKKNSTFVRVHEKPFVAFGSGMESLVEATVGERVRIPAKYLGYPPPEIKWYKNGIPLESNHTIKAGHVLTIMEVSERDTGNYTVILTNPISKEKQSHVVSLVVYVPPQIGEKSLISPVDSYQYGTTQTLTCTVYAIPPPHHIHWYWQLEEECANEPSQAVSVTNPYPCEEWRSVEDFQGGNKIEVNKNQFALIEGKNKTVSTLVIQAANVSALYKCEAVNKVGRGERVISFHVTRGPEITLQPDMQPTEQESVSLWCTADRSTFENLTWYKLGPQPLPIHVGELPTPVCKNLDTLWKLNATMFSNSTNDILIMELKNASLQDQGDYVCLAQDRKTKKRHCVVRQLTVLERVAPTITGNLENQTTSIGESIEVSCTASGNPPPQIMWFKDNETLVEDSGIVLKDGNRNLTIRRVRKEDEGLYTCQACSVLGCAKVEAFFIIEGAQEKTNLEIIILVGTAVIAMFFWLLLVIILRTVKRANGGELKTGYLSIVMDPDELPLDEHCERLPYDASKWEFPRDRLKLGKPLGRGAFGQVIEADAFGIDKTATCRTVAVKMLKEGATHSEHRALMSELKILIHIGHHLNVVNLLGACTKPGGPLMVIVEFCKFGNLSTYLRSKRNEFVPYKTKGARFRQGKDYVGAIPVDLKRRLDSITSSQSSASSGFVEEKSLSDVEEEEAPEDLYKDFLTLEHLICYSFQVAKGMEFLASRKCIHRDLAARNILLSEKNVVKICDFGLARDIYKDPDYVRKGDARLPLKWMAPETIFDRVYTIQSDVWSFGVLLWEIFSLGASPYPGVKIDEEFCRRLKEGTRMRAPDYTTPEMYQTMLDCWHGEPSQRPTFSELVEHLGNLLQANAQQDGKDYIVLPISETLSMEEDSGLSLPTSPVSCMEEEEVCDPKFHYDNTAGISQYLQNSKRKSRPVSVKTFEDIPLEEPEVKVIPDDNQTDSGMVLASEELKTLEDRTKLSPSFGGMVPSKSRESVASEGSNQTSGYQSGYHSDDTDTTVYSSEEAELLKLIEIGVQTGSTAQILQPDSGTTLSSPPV

Regarding `CCOC1CN(CC(=O)Nc2cnc(C)c(NC(=O)c3cnn4cc(-c5cccnc5OC)sc34)c2)C1` [US20240109917, Example 401], the half-inhibitory concentration (IC50) (usually the point on the concentration scale where inhibition reaches its midpoint) in experiment [1] is 0.3 nM; in experiment [2], > 7500 nM.
